Results reported in patent US11780927B2, “Anti-CD40 antibodies for use in prevention of graft rejection” (NOVARTIS AG, priority 2018, dated 2023).

Assays:
recombinant human CD40 = recombinant human CD40 (Homo sapiens, UniProt P25942); assay: Surface plasmon resonance analysis of affinity for CD40; type: binding
Procedure: The binding analyses of recombinant CFZ533 were performed at 25° C. with HBS−EP+ as running buffer. A typical binding analysis cycle consisted of three steps: (i) capture of the antibody via ProteinA immobilized on the chip surface, (ii) binding of CD40 antigen to the captured anti-CD40 antibody, and (iii) regeneration of the ProteinA surface. To determine the kinetic rate constants of the antigen-antibody binding interactions, binding data were processed, double referenced with responses from blank injections. The binding curves were fitted locally using the 1:1 interaction model of the Biacore T100 Evaluation software to determine kinetic rate constants. The value for the equilibrium dissociation constant (KD) was calculated as the ratio of the rate constants kd/ka. All binding measurements were performed in two independent experiments.

[1] = test system: human whole blood, PBMCs, monocyte-derived DCs, HUVECs; assay: Stimulatory potential in vitro (proliferation, CD69, cytokines); type: cell-based
Procedure: The ability of CFZ533 to stimulate activation of human leukocytes was assessed using proliferation and upregulation of the activation molecule CD69 on B cells in whole blood. […] Human whole blood from multiple donors (n=13) were incubated with a dose titration of CFZ533, and proliferation (^3H-TdR) was assessed after three days of culture. ii. Human PBMCs from multiple donors (n=26) were incubated with a dose titration of CFZ533, and proliferation (^3H-TdR) was assessed after three days of culture. For both graphs, data is presented as mean and SD of normalized cpm as a function of log-transformed CFZ533 concentration (rCD154+IL-4=100; dotted lines, cells plus media=0; dashed lines). […] Human PBMCs were stimulated for 3 days with a dose titration of CFZ533 in the presence of IL-4 (i) or anti-IgM F(ab′)2. (ii). The mean and SD of 3H-TdR (cpm) is shown as a function of log-transformed CFZ533 concentration. In FIG. 6C it is shown how human whole blood (41 donors) was cultured overnight with no stimuli, CFZ533, isotype control or rCD154 and CD69 expression on B cells was assessed by FACS. Each dot represents data from a single donor with mean % CD69 values indicated by a horizontal red line.

[2] = test system: transplanted kidney grafts; assay: Allograft biopsies scored by Chronic Allograft Damage Index (CADI); type: in vivo, human
Text: The quality of the graft was estimated using the Chronic Allograph Damage Index (CADI) (Isoniemi et al. 1992 and 1994), where scores of ≤1 reflects normal renal histology and higher scores correlate with poor long-term outcome (Hayry et al. 2004, Yilmaz et al. 2007, Yilmaz et al. 2003). Pristine renal histology was found in 3 of 5 patients on iscalimab (60%) and in none of the 7 treated with tacrolimus (0%). The average CADI was 1.60±0.60 for CFZ533 (n=5) vs. 5.14±0.80 for tacrolimus (n=7), (mean±SEM, p<0.01 using Student t)
A PoC Study in de Novo Renal Transplantation (CCFZ533X2101/NCT02217410) using CFZ533 was performed. […] Allograft biopsies were performed on a subset of study patients. A pathologist, blinded to therapy, reviewed and scored all biopsy slides using the established Banff criteria and calculated the chronic allograft damage index (CADI, Nickerson P et al., Legendre C et al., Seron D et al.,). A CADI of 1 or less was considered as ‘normal renal histology’. Two patients were excluded from the analysis, since they switched therapy after only 2 months. […] The average CADI at final biopsy was 1.6±0.6 for CFZ533 and 5.1±0.8 for tacrolimus, p<0.01.

[3] = Dose-range finding embryo-fetal development study; type: in vivo; conditions: rabbits
Text: Full guideline-conform reproductive toxicity studies have not been conducted thus far. However, a dose-range finding, embryo-fetal development (EFD) study in rabbits has been conducted in order to confirm the rabbit as relevant reproductive toxicology species.

human B cell line RI-1 = assay: Internalization by image flow cytometry; type: cell-based; conditions: 3 hours at 37° C.
Procedure: Internalization of fluorescently tagged CFZ533 and rCD154 was assessed in vitro using the human B cell line RI-1 (Th'ng et al, 1987). CD40 dependence of CFZ533 internalization was assessed using a CD40 knockout RI-1 cell line. Internalization was assessed using an Amnis® image flow cytometer (Merck KHaA, Darnstadt) according to the manufacturer's instructions and data analyzed using ImageStream®^X software.
FIG. 8B. Relative internalization erode of CFZ533 and rCD154 under permissive conditions (non-permissive erode values subtracted). Each dot represents data from an individual experiment and the population mean is indicated as a horizontal red line. FIG. 8C. Representative images of individual CD40 expressing or CD40 knock-out RI-1 cells cultured with Alexa488 labeled CFZ533 for 3 hours at 37° C. In all experiments, cells were co-stained with AlexaFlour 647 labeled CD45 to demark the cell membrane.

CD20pos B cells = assay: In vitro B cell depletion in human whole blood; type: cell-based; conditions: 72 hours; Rituximab 50 μg/ml, CFZ533 dose titration
Procedure: See supplementary material for detailed methods. Briefly, the ability of CFZ533 to mediated depletion of CD20^pos B cells was monitored in human whole blood over a period of three days in comparison to the B cell depleting antibody Rituximab. For CDC, CFZ533 or Rituximab were incubated with RAJI B cells in the presence or absence of rabbit complement and cell lysis was assessed by luminescence.
B cells numbers were determined based on CD45pos and CD19pos events falling within lymphocyte FSC (forward-scattered light)/SSC (side-scattered light) gate. Results for individual antibody concentrations were calculated as percent remaining B cells with reference to untreated samples and graphed as a function of log-transformed antibody concentration (adjusted to 100% and shown as a dotted line). Data represent the mean and SD of eight independent donors. […] Concentration dependent killing of the Raji cells was analyzed after 2 hours, where the viability of the cells was measured by determination of the ATP concentration in each well using luciferase. Results are presented as isotype-control normalized relative luciferase units (RLU) as a function of log-transformed antibody concentration.

[4] = cynomolgus monkey, in vivo
[5] = test system: life-supporting kidney allografts; assay: NHP model of kidney allograft rejection; type: in vivo, cynomolgus monkeys (Macaca fascicularis)
human PBMCs = assay: rCD154 and IL-4-mediated proliferation (3H-TdR), human PBMCs; type: cell-based

Sequence of recombinant human CD40 (P25942 21-277): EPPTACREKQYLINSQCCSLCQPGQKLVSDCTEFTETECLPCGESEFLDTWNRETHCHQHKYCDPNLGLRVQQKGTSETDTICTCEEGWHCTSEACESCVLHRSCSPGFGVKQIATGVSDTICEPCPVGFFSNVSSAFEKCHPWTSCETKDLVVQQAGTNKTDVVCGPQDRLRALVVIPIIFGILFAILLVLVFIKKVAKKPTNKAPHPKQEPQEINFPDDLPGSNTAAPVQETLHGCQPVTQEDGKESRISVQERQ

With “CFZ533: human anti-CD40 IgG1 monoclonal antibody with Fc-silencing N297A mutation; heavy chain SEQ ID NO: 9, light chain SEQ ID NO: 10” the “ka [1/Ms]” value (recombinant human CD40; SPR, 25° C.) was 3.13 ± 0.73 × 10^5 1/Ms, the “kd [1/s]” value (recombinant human CD40; SPR, 25° C.) was 0.93 ± 0.14 × 10^−4 1/s and the Kd (recombinant human CD40; surface plasmon resonance) was 0.3 nM. The “Induction of thymidine incorporation (proliferation)” value ([1]; human whole blood (1:10 dilution) or PBMCs, three days) was “unable to induce thymidine incorporation”, the “Induction of CD69 upregulation on B cells” value ([1]; human whole blood, overnight) was “unable to induce upregulation of CD69” and the “Induction of cytokine production” value ([1]; monocyte-derived DCs or HUVECs) was “unable to induce cytokine production”. For the same substance, the “average CADI (mean±SEM)” value ([2]; final biopsy) was 1.6±0.6, the “patients with normal (pristine) renal histology, CADI of 1 or less” value ([2]; treated for up to 25 months) was 60% and the “Effects on embryo-fetal development” value [3] was “No effects on embryo-fetal development”. The “Internalization by RI-1 B cells” value (human B cell line RI-1) was “internalized”, the “B cells eliminated in human whole blood” value (CD20pos B cells) was “failed to mediate any cell depletion” and the “average concentration at steady state (Cav,ss)” value ([4]; 150 mg/kg) was 8300 µg/mL. The “systemic exposure (AUC, steady state conditions) over a 1-month period” value ([4]; 150 mg/kg) was 232400 µg·days/mL, the “Cmax,ss (mean, all animals)” value ([4]; sc, 50 mg/kg) was 3235 µg/mL and the “Days after Transplantation (median days)” value ([5]; CFZ533 30 mg/kg i.v. monotherapy, n 5) was 95 days. The “Survival of kidney allografts and graft morphology” value ([5]; combination with CsA (20 mg/kg p.o.) or monotherapy) was “demonstrated efficacy in increasing the survival of kidney allografts in NHPs”, the “Effect of delayed addition on rCD154-induced cellular activation” value (human PBMCs; added up to 6 hours after start of cultures containing rCD154) was “complete inhibition of cellular activation with minimal loss of potency” and the “Inhibition of rCD154-induced proliferation (IC50 PBMCs)” value (human PBMCs; human PBMCs) was 0.02 µg/mL. The IC50 (human PBMCs; human PBMCs, read-out: IC50, rCD154-induced proliferation) was 0.12 nM.
